These are literature values, as cited in patent US20120015039A1, “SUSTAINED RELEASE OF NUTRIENTS IN VIVO” (New World Pharmaceuticals, LLC, priority 2007, published 2012).

Data set [1] deals with mice. Particulars: mouse, in vivo, iv.
The test system of data set [2] is Na/K ATPase.

The term LD50 denotes the dose expected to kill half of the subjects tested. For the molecule `COC(=O)C1=CO[C@@H](O)[C@@H]2C(CO)=CC[C@H]12` [Genipin], the median lethal dose (LD50) in data set [1] was 382 mg/kg. On to `[O]=[V]([O-])([O-])[O-]` [vanadate], for which the “concentration at which formation of EP is inhibited” value in data set [2] is listed as “less than 1 micromolar”.
